From patent publication US11801226B2, “Pharmaceutical formulation of odevixibat” (Albireo AB, priority 2018, dated 2023)
Converted amounts (≈) assume the structure as drawn.

Legend:
Type in all cases: physicochemical
[1] = Water content / hygroscopicity of crystal modification 1 versus relative humidity
Text: Crystal modification 1 of odevixibat cannot only be obtained from a mixture of water and ethanol, as described above, but also from a slurry of odevixibat in a mixture of water and an organic solvent selected from the group consisting of methanol, 2-propanol, acetone, acetonitrile, 1,4-dioxane, DMF and DMSO. Upon drying of the different mixed solvates obtained under these conditions (crystal modification 2), the same crystalline hydrate of odevixibat is obtained, namely crystal modification 1. Crystal modification 1 contains void volumes that are capable of containing up to about 2 moles of water associated with the crystal per mole of odevixibat, depending on the relative humidity. This form is therefore formally a channel hydrate. At about 30% relative humidity, however, crystal modification 1 contains a substantially stoichiometric amount of about 1.5 moles of water per mole of organic compound and is thus a sesquihydrate. The substantially stoichiometric amount of water is considered advantageous, as the water content of the crystals remains substantially constant even with humidity changes within the normal relative humidity range of about 30% to about 70% RH.
Whereas crystal modification 1 is a sesquihydrate containing about 3.5% (w/w) water at about 30% relative humidity (based on the total crystal weight), it has been observed that the crystal can take up an additional 1.5% (w/w) water when the humidity is increased up to 95% RH. The sorption and desorption of this additional water is fully reversible. The additional water may be adsorbed on the surface or may further fill the channels of the structure. In some embodiments, the term “overhydrated” refers to crystal modification 1 containing from about 1.5 to about 4 moles of water per mole of odevixibat, such as from about 1.5 to about 3.5, or such as from about 1.5 to 3, or such as from about 1.5 to about 2.5, or such as from about 1.5 to about 2 moles of water per mole of odevixibat. In some embodiments, the term “overhydrated” refers to crystal modification 1 containing from about 2 to about 4 moles of water per mole of odevixibat, such as from about 2 to about 3.5, or such as from about 2 to about 3, or such as from about 2 to 2.5 moles of water per mole of odevixibat.

[2] = Particle size distribution of crystalline odevixibat drug substance; settings: typical value, crystalline material
Text: Crystalline odevixibat was used. Typical values for the particle size distribution of the crystalline material were d10=0.9 μm, d50=4 μm and d90=20 μm, wherein d10, d50 and d90 are defined as the diameters where 10%, 50% and 90%, respectively, of the particle population lies below these values. […]

[3] = Solubility of odevixibat in water; settings: pH 7, 37° C.
Text: It is desirable that the use of organic solvents in the preparation of the formulation is avoided. In some embodiments, water is used as the solvent for the preparation of the formulation. […] Because of this low solubility in water, aqueous suspensions of odevixibat can contain larger agglomerates of odevixibat, which may lead to an uneven distribution of the active pharmaceutical ingredient on the cores, i.e. the cores may contain different amounts of odevixibat, which in turn impacts dose uniformity. Accordingly, in some embodiments, the aqueous suspension of odevixibat is homogeneous. In some embodiments, a homogeneous aqueous suspension of odevixibat is sprayed onto the cores.

| water content of crystal ([1]; about 30% relative humidity, based on total crystal weight) | hygroscopicity ([1]; between about 30 and about 70% RH) | additional water taken up ([1]; humidity increased up to 95% RH, fully reversible) | particle size distribution d10 [2] | particle size distribution d50 [2] | particle size distribution d90 [2] | solubility [3] | SMILES | water content ([1]; about 30% relative humidity) |
| --- | --- | --- | --- | --- | --- | --- | --- | --- |
| about 3.5 % (w/w) | relatively low hygroscopicity | 1.5 % (w/w) | – | – | – | – | CCCCC1(CCCC)CN(c2ccccc2)c2cc(SC)c(OCC(=O)N[C@@H](C(=O)N[C@@H](CC)C(=O)O)c3ccc(O)cc3)cc2S(=O)(=O)N1 [crystal modification 1] | about 1.5 moles of water per mole of organic compound |
| – | – | – | 0.9 μm | 4 μm | 20 μm | ~30 µg/mL (≈ 40.5 µM) | CCCCC1(CCCC)CN(c2ccccc2)c2cc(SC)c(OCC(=O)N[C@@H](C(=O)N[C@@H](CC)C(=O)O)c3ccc(O)cc3)cc2S(=O)(=O)N1 [odevixibat, 1,1-dioxo-3,3-dibutyl-5-phenyl-7-methylthio-8-(N—{(R)-α-[N—((S)-1-carboxypropyl)carbamoyl]-4-hydroxybenzyl}carbamoylmethoxy)-2,3,4,5-tetrahydro-1,2,5-benzothiadiazepine] | – |
